Source: US11034650B2, “Compounds useful for treating a Mannheimia haemolytica or Histophilus somni infection” (Intervet Inc., priority 2016, dated 2021)
Values after ≈ are worked out from the molar mass of the structure shown.

What was measured:
Assay type in all cases: cell-based
[1] = system: Mannheimia haemolytica MH 13093 (XB0472-6014.1, BRD field isolate); assay: MIC, broth-microdilution (CLSI VET01-A4), strain MH 13093; conditions: Mannheimia haemolytica strain MH 13093, broth-microdilution; unit assumed
Protocol: (§1) For example, representative compounds were tested against ***, Mannheimia haemolytica and Pasteurella multocida, using the conventional broth-dilution assay.
(§2) The Minimum inhibitory concentrations (MIC) of compounds according to the invention for a number of veterinary bacterial pathogens were determined by the broth-microdilution method according to CLSI document VET01-A4.
(§3) Microdilution trays containing a doubling dilution series of the test compound were used for the tests. The MIC results were interpreted according to the CLSI documents VET01-S3. The lowest concentration of compound at which no visible growth (i.e. no turbidity) detected by the unaided eye was recorded as the MIC.

[2] = system: Mannheimia haemolytica MH 13065 (XB0446-6003.9, BRD field isolate); assay: MIC, broth-microdilution (CLSI VET01-A4), strain MH 13065; conditions: Mannheimia haemolytica strain MH 13065, broth-microdilution; unit assumed
Protocol: as §1, §2, §3

[3] = system: Mannheimia haemolytica MH 6357 (M7/2, reference strain, cattle infection strain); assay: MIC, broth-microdilution (CLSI VET01-A4), strain MH 6357; conditions: Mannheimia haemolytica strain MH 6357, broth-microdilution; unit assumed
Protocol: as §1, §2, §3

[4] = system: Pasteurella multocida PM 10775 (080130003051, BRD field isolate); assay: MIC, broth-microdilution (CLSI VET01-A4), strain PM 10775; conditions: Pasteurella multocida strain PM 10775, broth-microdilution; unit assumed
Protocol: as §1, §2, §3

[5] = system: Pasteurella multocida PM 12080 (IV102277-0093, BRD field isolate); assay: MIC, broth-microdilution (CLSI VET01-A4), strain PM 12080; conditions: Pasteurella multocida strain PM 12080, broth-microdilution; unit assumed
Protocol: as §1, §2, §3

[6] = system: Mannheimia haemolytica MH 10720 (154, BRD field isolate); assay: MIC, broth-microdilution (CLSI VET01-A4), strain MH 10720; conditions: Mannheimia haemolytica strain MH 10720, broth-microdilution; unit assumed
Protocol: as §1, §2, §3

[7] = system: Mannheimia haemolytica MH 6374 (ATCC 33396, reference strain); assay: MIC, broth-microdilution (CLSI VET01-A4), strain MH 6374; conditions: Mannheimia haemolytica strain MH 6374, broth-microdilution; unit assumed
Protocol: as §1, §2, §3

[8] = system: Mannheimia haemolytica MH 12587 (1071, BRD field isolate, macrolide-resistance: erm+, E+); assay: MIC, broth-microdilution (CLSI VET01-A4), strain MH 12587; conditions: Mannheimia haemolytica strain MH 12587, broth-microdilution; unit assumed
Protocol: as §1, §2, §3

[9] = system: Pasteurella multocida PM 6267 (P 2225 (L386), reference strain, mouse infection strain); assay: MIC, broth-microdilution (CLSI VET01-A4), strain PM 6267; conditions: Pasteurella multocida strain PM 6267, broth-microdilution; unit assumed
Protocol: as §1, §2, §3

SMILES	MIC MH 13093 [1]	MIC MH 13065 [2]	MIC MH 6357 [3]	MIC PM 10775 [4]	MIC PM 12080 [5]	MIC MH 10720 [6]	MIC MH 6374 [7]	MIC MH 12587 [8]	MIC PM 6267 [9]
CC[C@H](C)[C@H](NC(=O)c1ccc(C#Cc2ccc(CN3CCc4ccccc4C3)cc2)cc1)C(=O)NO [Compound 124]	12.5 µg/mL (≈ 25.2 µM)	12.5 µg/mL (≈ 25.2 µM)	6.3 µg/mL (≈ 12.7 µM)	0.8 µg/mL (≈ 1.61 µM)	3.1 µg/mL (≈ 6.25 µM)	3.1 µg/mL (≈ 6.25 µM)	12.5 µg/mL (≈ 25.2 µM)	25 µg/mL (≈ 50.4 µM)	3.1 µg/mL (≈ 6.25 µM)
CC[C@H](C)[C@H](NC(=O)c1ccc(C#Cc2ccc(CNCc3ccccc3)cc2)cc1)C(=O)NO [Compound 126]	1.6 µg/mL (≈ 3.41 µM)	1.6 µg/mL (≈ 3.41 µM)	3.1 µg/mL (≈ 6.6 µM)	≤ 0.1 µg/mL	0.8 µg/mL (≈ 1.7 µM)	0.4 µg/mL (≈ 0.852 µM)	1.6 µg/mL (≈ 3.41 µM)	1.6 µg/mL (≈ 3.41 µM)	0.4 µg/mL (≈ 0.852 µM)
CC[C@H](C)[C@H](NC(=O)c1ccc(C#Cc2ccc(CN(C)Cc3ccccc3)cc2)cc1)C(=O)NO [Compound 127]	12.5 µg/mL (≈ 25.8 µM)	6.3 µg/mL (≈ 13 µM)	3.1 µg/mL (≈ 6.41 µM)	0.4 µg/mL (≈ 0.827 µM)	1.6 µg/mL (≈ 3.31 µM)	1.6 µg/mL (≈ 3.31 µM)	6.3 µg/mL (≈ 13 µM)	25 µg/mL (≈ 51.7 µM)	1.6 µg/mL (≈ 3.31 µM)
CC[C@H](C)[C@H](NC(=O)c1ccc(C#Cc2ccc(CNCc3ccc(Cl)cc3)cc2)cc1)C(=O)NO [Compound 128]	6.3 µg/mL (≈ 12.5 µM)	3.1 µg/mL (≈ 6.15 µM)	3.1 µg/mL (≈ 6.15 µM)	0.4 µg/mL (≈ 0.794 µM)	3.1 µg/mL (≈ 6.15 µM)	0.8 µg/mL (≈ 1.59 µM)	3.1 µg/mL (≈ 6.15 µM)	12.5 µg/mL (≈ 24.8 µM)	3.1 µg/mL (≈ 6.15 µM)
CC[C@H](C)[C@H](NC(=O)c1ccc(C#Cc2ccc(CNCc3ccc(OC)cc3)cc2)cc1)C(=O)NO [Compound 129]	3.1 µg/mL (≈ 6.2 µM)	1.6 µg/mL (≈ 3.2 µM)	1.6 µg/mL (≈ 3.2 µM)	≤ 0.1 µg/mL	1.6 µg/mL (≈ 3.2 µM)	0.4 µg/mL (≈ 0.801 µM)	1.6 µg/mL (≈ 3.2 µM)	3.1 µg/mL (≈ 6.2 µM)	0.8 µg/mL (≈ 1.6 µM)
CC[C@H](C)[C@H](NC(=O)c1ccc(C#Cc2ccc(CNCc3ccc(N(C)C)cc3)cc2)cc1)C(=O)NO [Compound 130]	6.3 µg/mL (≈ 12.3 µM)	6.3 µg/mL (≈ 12.3 µM)	3.1 µg/mL (≈ 6.05 µM)	0.4 µg/mL (≈ 0.78 µM)	3.1 µg/mL (≈ 6.05 µM)	1.6 µg/mL (≈ 3.12 µM)	3.1 µg/mL (≈ 6.05 µM)	12.5 µg/mL (≈ 24.4 µM)	3.1 µg/mL (≈ 6.05 µM)
CC[C@H](C)[C@H](NC(=O)c1ccc(C#Cc2ccc(CNCc3ccncc3)cc2)cc1)C(=O)NO [Compound 132]	0.8 µg/mL (≈ 1.7 µM)	0.8 µg/mL (≈ 1.7 µM)	1.6 µg/mL (≈ 3.4 µM)	≤ 0.1 µg/mL	0.4 µg/mL (≈ 0.85 µM)	0.2 µg/mL (≈ 0.425 µM)	0.8 µg/mL (≈ 1.7 µM)	0.8 µg/mL (≈ 1.7 µM)	≤ 0.1 µg/mL
CN(C)c1ccc(CNCc2ccc(C#Cc3ccc(C(=O)N[C@@H](CO)C(=O)NO)cc3)cc2)cc1 [Compound 134]	25 µg/mL (≈ 51.4 µM)	12.5 µg/mL (≈ 25.7 µM)	25 µg/mL (≈ 51.4 µM)	≤ 0.1 µg/mL	3.1 µg/mL (≈ 6.37 µM)	6.3 µg/mL (≈ 12.9 µM)	6.3 µg/mL (≈ 12.9 µM)	12.5 µg/mL (≈ 25.7 µM)	0.8 µg/mL (≈ 1.64 µM)
CC(C)[C@H](NC(=O)c1ccc(C#Cc2ccc(CN3CCN(c4ccccc4)CC3)cc2)cc1)C(=O)NO [Compound 135]	25 µg/mL (≈ 49 µM)	25 µg/mL (≈ 49 µM)	3.1 µg/mL (≈ 6.07 µM)	≤ 0.1 µg/mL	0.8 µg/mL (≈ 1.57 µM)	0.8 µg/mL (≈ 1.57 µM)	6.3 µg/mL (≈ 12.3 µM)	1 µg/mL (≈ 1.96 µM)	0.8 µg/mL (≈ 1.57 µM)
CC[C@H](C)[C@H](NC(=O)c1ccc(C#Cc2ccc(CNCc3nccs3)cc2)cc1)C(=O)NO [Compound 188]	0.8 µg/mL (≈ 1.68 µM)	0.8 µg/mL (≈ 1.68 µM)	0.8 µg/mL (≈ 1.68 µM)	≤ 0.1 µg/mL	≤ 0.1 µg/mL	≤ 0.1 µg/mL	1.6 µg/mL (≈ 3.36 µM)	3.1 µg/mL (≈ 6.5 µM)	≤ 0.1 µg/mL
CC[C@H](C)[C@H](NC(=O)c1ccc(C#Cc2ccc(CNCC#N)cc2)cc1)C(=O)NO [Compound 192]	0.8 µg/mL (≈ 1.91 µM)	0.8 µg/mL (≈ 1.91 µM)	0.8 µg/mL (≈ 1.91 µM)	≤ 0.1 µg/mL	≤ 0.1 µg/mL	0.2 µg/mL (≈ 0.478 µM)	1.6 µg/mL (≈ 3.82 µM)	3.1 µg/mL (≈ 7.41 µM)	≤ 0.1 µg/mL
CC(C)[C@H](NC(=O)c1ccc(C#Cc2ccc(CN3CCCOCC3)cc2)cc1)C(=O)NO [Compound 202]	1.6 µg/mL (≈ 3.56 µM)	1.6 µg/mL (≈ 3.56 µM)	0.8 µg/mL (≈ 1.78 µM)	≤ 0.1 µg/mL	≤ 0.1 µg/mL	0.2 µg/mL (≈ 0.445 µM)	3.1 µg/mL (≈ 6.9 µM)	3.1 µg/mL (≈ 6.9 µM)	≤ 0.1 µg/mL
